# Laboratory results: PMC11557217, “Insights into the Functioning of the D-amino Acid Transaminase from Haliscomenobacter Hydrossis via a Structural and Spectral Analysis of its Complex with 3-Aminooxypropionic Acid” (Acta Naturae, 2024)
# Tests used:
# TA_Halhy [1] = biological target: T1, TA_Halhy (Haliscomenobacter hydrossis, UniProt F4KWH0); assay: X-ray crystal structure ([…] Å, co-crystallization); UV/Vis spectra of oxime formation; format: binding; settings: covalent: forms oxime with the PLP cofactor; crystals at pH 5.5, 12 mM compound, 6 mM PLP; spectra at pH 8.0, 25 °C; carboxyl group in O-pocket; reversible
# T1 construct: gene Halhy_2446; PLP holoenzyme; homodimer
# T1 sequence (F4KWH0 1-281): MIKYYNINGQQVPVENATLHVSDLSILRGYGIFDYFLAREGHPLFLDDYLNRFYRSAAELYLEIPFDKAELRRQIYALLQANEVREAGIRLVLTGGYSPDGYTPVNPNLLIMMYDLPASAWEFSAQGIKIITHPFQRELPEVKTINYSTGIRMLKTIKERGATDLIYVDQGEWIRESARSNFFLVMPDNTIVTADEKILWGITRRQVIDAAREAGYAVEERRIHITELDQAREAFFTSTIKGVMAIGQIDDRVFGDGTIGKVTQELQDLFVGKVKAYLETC
# TA_Halhy [2] = biological target: T1, TA_Halhy; assay: transamination, lactate dehydrogenase-coupled NADH assay; substrate inhibition curve; format: biochemical; settings: 2.5 mM pyruvate, 30 μM PLP, 50 mM potassium phosphate, pH 8.0, 40 °C
# TA_Halhy [3] = biological target: T1, TA_Halhy; assay: UV/Vis spectra and activity restoration of the apoenzyme on adding PLP; format: biochemical; settings: 50 mM potassium phosphate, pH 8.0; covalent internal aldimine in the holoenzyme
# TA_Halhy [4] = biological target: T1, TA_Halhy; assay: transamination; substrate inhibition curve; format: biochemical; settings: 40 mM D-alanine, 30 μM PLP, 50 mM potassium phosphate, pH 8.0, 40 °C
compound,measurement,setting,value
"NOCCC(=O)O [3-aminooxypropionic acid, 3-(aminooxy)propanoic acid]","X-ray crystal structure (1.70 Å, co-crystallization); UV/Vis spectra of oxime fo",TA_Halhy [1],the structure of the TA_Halhy complex has been solved and refined
N[C@H](CCC(=O)O)C(=O)O [D-glutamic acid],"transamination, lactate dehydrogenase-coupled NADH assay; substrate inhibition c",TA_Halhy [2],TA_Halhy is inhibited by D-glutamic acid and α-ketoglutarate at substrate concentrations as low as millimolars
Cc1ncc(COP(=O)(O)O)c(C=O)c1O [pyridoxal 5'-phosphate],UV/Vis spectra and activity restoration of the apoenzyme on adding PLP,TA_Halhy [3],"Holoenzyme was formed, and TA_Halhy activity was fully restored, after PLP was added"
O=C(O)CCC(=O)C(=O)O [α-ketoglutarate],transamination; substrate inhibition curve,TA_Halhy [4],TA_Halhy is inhibited by D-glutamic acid and α-ketoglutarate at substrate concentrations as low as millimolars
